From article PMC9928118, “Funneling modulatory peptide design with generative models: Discovery and characterization of disruptors of calcineurin protein-protein interactions” (PLOS Computational Biology, 2023)

Test system: GST-tagged Cn
Assay: PEPperPRINT peptide microarray binding assay with GST-tagged Cn
Source text: We then estimated in-silico the binding strength of the various peptides to Cn by template-based docking followed by flexible backbone refinement using Modeller and PepCrawler (Figs 4 and S4). In parallel, we performed a medium-throughput qualitative binding assay using a PEPperPRINT peptide microarray to evaluate the direct binding of Cn to selected peptides (Figs 4 and S5, S3 Data).
Fig 4 Medium-throughput filtering by structural modeling and microarray screening. (a) Depiction of the structural modeling protocol: after alignment to the known PxIxIT binding site, an efficient flexible backbone structure refinement algorithm is applied to estimate the docking energy. […] (c) Coefficients of the equivalent single-site model fitted by sparse linear regression, shown in weight logo representation. […] Colors indicate physical property (black = hydrophobic, red = negatively charged, etc.). (d) Per-gene distribution of docking scores across natural fragments (lower is better). […] (e) Overview of the microarray screening. Peptides are printed on the chip (two circles per peptide). After pouring of Cn and subsequent washing, fluorescent-tagged, a Cn-targeting antibody is overlaid and an image is taken. Fluorescent spots indicate strong Cn binders. (f) Scatter plot of the sequence likelihood (normalized by length, higher is better) against fluorescence level (higher is better, see Methods for details of the data analysis).
In parallel, selected peptides were tested for Cn binding on a chip microarray (PEPperPRINT). 786 peptides were printed on the chip and were incubated with GST-tagged Cn overnight at 4°C. Following extensive washing, binding was detected by applying a fluorescently labeled (Alexa-Fluor 647) GST antibody. […] The experiment was repeated five times, and Z-normalized fluorescence levels were determined following post-processing of the raw data (Methods, S5A, S5B and S5C Fig).
The peptide array was prepared as a custom array pepper chip (PEPperPRINT). For binding detection, 1mg/ml GST-tagged Cn was incubated overnight on the microarray at 4°C. Following extensive washing, fluorescently labeled (Alexa-Fluor 647) GST-antibody. […] The experiment was repeated five times. Each scan was analyzed as follows: a grid was overlaid using the border HA markers to determine regions of interest (ROI) for each peptide (two ROIs per peptide) and the logarithm of the average fluorescence intensity was computed for each ROI. […] To remove spatial artifacts, a position-dependent baseline fluorescence was fitted using a second-order polynomial, and subtracted to the fluorescence. Fluorescence levels were next averaged over the two ROI for each peptide and Z-normalized. […] The Z-scores were averaged over the five repetitions to yield one fluorescence score per peptide.

[1] = GST-tagged Cn, max over the chip spots listed under Location on chip
[2] = GST-tagged Cn, mean over the chip spots listed under Location on chip
[3] = GST-tagged Cn, max over the chip locations
[4] = GST-tagged Cn, mean over the chip locations
[5] = GST-tagged Cn, max over the spots on the chip (two locations)
[6] = GST-tagged Cn, mean over the spots on the chip (two locations)
[7] = max over the chip locations listed for the peptide (two spots)
[8] = mean over the chip locations listed for the peptide (two spots)
[9] = GST-tagged Cn, max over the spots named in Location on chip
[10] = GST-tagged Cn, mean over the spots named in Location on chip
[11] = max over the spots listed under Location on chip
[12] = mean over the spots listed under Location on chip

RQPGTLGLTLEGHSNS [SeqRBM_7786]
Chip Fluorescence (max) [1]: 0.7712
Chip Fluorescence (mean) [2]: -0.3628

ESFGNELIPFNASKSY [Seqshuffled_9947]
Chip Fluorescence (max) [3]: -0.1304
Chip Fluorescence (mean) [4]: -0.5132

RNPGTFPLTLEGHKKQ [SeqRBMlowT_6333]
Chip Fluorescence (max) [5]: 1.229
Chip Fluorescence (mean) [6]: -0.4106

PSEDQPGIVVHVCEED [SeqRBMlowT_124]
Chip Fluorescence (max) [7]: 4.395
Chip Fluorescence (mean) [8]: 0.1564

GVHSCPALSVDRPQNQ [Seqshuffled_9565]
Chip Fluorescence (max) [5]: 1.31
Chip Fluorescence (mean) [6]: -0.01046

GPPATPSIVVHPCCCD [SeqRBM_2098]
Chip Fluorescence (max) [5]: 1.034
Chip Fluorescence (mean) [6]: -0.005812

RQPGTALLELGGHKKQ [SeqRBMlowT_7758]
Chip Fluorescence (max) [5]: 1.043
Chip Fluorescence (mean) [6]: 0.136

ATDNQPGIVVHICADM [SeqRCN1_Daphnia_magna]
Chip Fluorescence (max) [5]: 1.1168
Chip Fluorescence (mean) [6]: 0.4617

TTAMNPQFFVQIPRTA [SeqCAPN11_Daphnia_magna_2]
Chip Fluorescence (max) [7]: 9.6825
Chip Fluorescence (mean) [8]: 0.161

QAVMCTAMSWCDCGQR [SeqRBM_6860]
Chip Fluorescence (max) [5]: 1.273
Chip Fluorescence (mean) [6]: 0.6916

ASEANPEITITPAELP [SeqRBMlowT_410]
Chip Fluorescence (max) [5]: 1.116
Chip Fluorescence (mean) [6]: -0.403

PALESPRIEITSYLGM [SeqNFATC1_Canis_lupus]
Chip Fluorescence (max) [9]: 1.5159
Chip Fluorescence (mean) [10]: -0.48

SDSANPEITITPAELP [SeqRBMlowT_1995]
Chip Fluorescence (max) [7]: 3.663
Chip Fluorescence (mean) [8]: 2.123

ADEAAPEIVVSKPEHN [SeqRBMlowT_7698]
Chip Fluorescence (max) [3]: 0.05556
Chip Fluorescence (mean) [4]: -1.148

SFWTNPQFRVKLEEVD [SeqRBMlowT_8566]
Chip Fluorescence (max) [5]: 1.129
Chip Fluorescence (mean) [6]: 0.3513

ERWSIGFGDMFCNQFK [Seqrandom_9989]
Chip Fluorescence (max) [11]: 2.7221
Chip Fluorescence (mean) [12]: 0.53

KKDVPPKILIEPPREF [SeqRBM_6642]
Chip Fluorescence (max) [1]: 0.9085
Chip Fluorescence (mean) [2]: -0.7336

TFWTNPQFRITVTDPD [SeqRBMlowT_669]
Chip Fluorescence (max) [11]: 2.934
Chip Fluorescence (mean) [12]: 1.6891

RTPGTALLTLRGHKKQ [SeqRBMlowT_5808]
Chip Fluorescence (max) [3]: 0.1527
Chip Fluorescence (mean) [4]: -0.8232

LSLKIPEISIQDMTAQ [SeqFLNA_Macaca_mulatta]
Chip Fluorescence (max) [5]: 1.124
Chip Fluorescence (mean) [6]: -0.12

MRRERSNRAMFKVNQH [Seqrandom_9977]
Chip Fluorescence (max) [9]: 1.743
Chip Fluorescence (mean) [10]: -0.1357

RNPGQALLQLSGHKAP [SeqRBM_8761]
Chip Fluorescence (max) [3]: 0.09132
Chip Fluorescence (mean) [4]: -0.8885

SAGAGVGIVITVTEAE [SeqRBMlowT_164]
Chip Fluorescence (max) [9]: 1.523
Chip Fluorescence (mean) [10]: -0.8688

RTPGTFLLTLRGHKKQ [SeqRBMlowT_7783]
Chip Fluorescence (max) [11]: 2.997
Chip Fluorescence (mean) [12]: 0.7866

RTLINPSVAFLYMGSR [SeqRBM_5357]
Chip Fluorescence (max) [5]: 1.016
Chip Fluorescence (mean) [6]: -0.7287

VQLKIPQLRVSSVSKP [SeqLCORL_2_Sus_scrofa]
Chip Fluorescence (max) [1]: 0.981
Chip Fluorescence (mean) [2]: -0.5484

PQPSVQSAEFMEFVGH [Seqshuffled_8788]
Chip Fluorescence (max) [9]: 1.4183
Chip Fluorescence (mean) [10]: 0.4268

TFWTNPQYKIKLEEPD [SeqRBMlowT_46]
Chip Fluorescence (max) [1]: 0.956
Chip Fluorescence (mean) [2]: -0.7275

LNLKIPEIDSSDMSAH [SeqFLNA_Erinaceus_europaeus]
Chip Fluorescence (max) [5]: 1.157
Chip Fluorescence (mean) [6]: 0.3599

PSMAAPAINIDFAPTN [SeqRBMlowT_2463]
Chip Fluorescence (max) [1]: 0.9672
Chip Fluorescence (mean) [2]: 0.03589

SVDKHPRVYVATSRED [SeqRBM_4749]
Chip Fluorescence (max) [7]: 4.793
Chip Fluorescence (mean) [8]: 0.8161

DTYGTASLARELPSPK [Seqshuffled_9914]
Chip Fluorescence (max) [9]: 1.867
Chip Fluorescence (mean) [10]: 0.7201

SKLMCVTLAIGSLSTS [SeqRBM_2514]
Chip Fluorescence (max) [5]: 1.101
Chip Fluorescence (mean) [6]: -0.2904

PGLYDNALGIESFTLS [SeqRBMlowT_2801]
Chip Fluorescence (max) [9]: 1.445
Chip Fluorescence (mean) [10]: 0.04021

TFWSNPQFKVSLEEPD [SeqRBMlowT_2967]
Chip Fluorescence (max) [9]: 1.583
Chip Fluorescence (mean) [10]: -0.5694

QSQSNPEITVTPPETE [SeqRIPOR2_Austrofundulus_limnaeus]
Chip Fluorescence (max) [7]: 10.3742
Chip Fluorescence (mean) [8]: 0.3512

KVRTALYFTWNLTERG [Seqshuffled_9698]
Chip Fluorescence (max) [5]: 1.275
Chip Fluorescence (mean) [6]: 0.3801

TFWTNPQYKVKLEDPD [SeqRBMlowT_2919]
Chip Fluorescence (max) [1]: 0.9474
Chip Fluorescence (mean) [2]: 0.1413

SHMAPPAINIDFAPSN [SeqCRZ1_Metarhizium_rileyi]
Chip Fluorescence (max) [3]: 0.3108
Chip Fluorescence (mean) [4]: -0.9278

NGPGTPTRQGQPLAPS [SeqRBMlowT_7792]
Chip Fluorescence (max) [1]: 0.749
Chip Fluorescence (mean) [2]: -1.0469

STSSLPTFSFSPPQPT [SeqRBMlowT_3908]
Chip Fluorescence (max) [11]: 2.68
Chip Fluorescence (mean) [12]: 0.3277

KKMAPPCINIDPAPTN [SeqRBMlowT_309]
Chip Fluorescence (max) [9]: 1.659
Chip Fluorescence (mean) [10]: -0.3088

FFHHGLSCCKARQAEY [Seqrandom_9955]
Chip Fluorescence (max) [7]: 3.699
Chip Fluorescence (mean) [8]: 0.5277

RNYINPQAQFTYDSGA [SeqRBM_6031]
Chip Fluorescence (max) [3]: -0.2579
Chip Fluorescence (mean) [4]: -0.9244

KAYINPFMQFIDGGRR [SeqRBMlowT_549]
Chip Fluorescence (max) [11]: 3.298
Chip Fluorescence (mean) [12]: 1.4015

HVSSSVDIVITPTQHR [SeqRBMlowT_8839]
Chip Fluorescence (max) [9]: 1.415
Chip Fluorescence (mean) [10]: 0.2946

ADEANPQITITPAELP [SeqRBMlowT_1252]
Chip Fluorescence (max) [3]: -0.527
Chip Fluorescence (mean) [4]: -1.133

KKMSPPCINIDPAPEN [SeqRBMlowT_2410]
Chip Fluorescence (max) [5]: 1.08
Chip Fluorescence (mean) [6]: -0.8311

AINASPEIVVGYDELP [SeqRBM_6435]
Chip Fluorescence (max) [9]: 1.452
Chip Fluorescence (mean) [10]: 1.232

LKDEIPEVRLNIISAL [SeqRBMlowT_1072]
Chip Fluorescence (max) [11]: 2.998
Chip Fluorescence (mean) [12]: 0.7654

RQPGTALLTLRGHKKQ [SeqRBMlowT_5805]
Chip Fluorescence (max) [9]: 1.524
Chip Fluorescence (mean) [10]: 0.2674

NWPETPSIVEQPPSSS [SeqRBM_881]
Chip Fluorescence (max) [3]: 0.2051
Chip Fluorescence (mean) [4]: -1.045

TFHTNPQYRIKLEEPD [SeqRBMlowT_4495]
Chip Fluorescence (max) [7]: 3.4958
Chip Fluorescence (mean) [8]: 1.049

LHPTCDPFRCSTHQSH [Seqshuffled_9610]
Chip Fluorescence (max) [5]: 1.254
Chip Fluorescence (mean) [6]: 0.008632
